According to patent publication US11498899B2, “Nitrone herbicides” (FMC Corporation, priority 2016, dated 2022):

Columns and labels:
[1] = tested on: barnyardgrass (Echinochloa crus-galli); test: Test B flooded paddy test, visual rating 0-100; conditions: Flood, 250 g ai/ha, applied to paddy water, rated after 13 to 15 days
rice (Oryza sativa) = test: Test B flooded paddy test, visual rating 0-100 (0 no effect, 100 complete control); conditions: Flood, 250 g ai/ha, applied to paddy water, rated after 13 to 15 days
[2] = tested on: foxtail, green (green foxtail, Setaria viridis); test: Test A postemergence, visual injury rating 0-100; type: in vivo; conditions: 0 to 100 scale
[3] = tested on: pigweed (Amaranthus retroflexus); test: Test A postemergence, visual injury rating 0-100; type: in vivo; conditions: 0 to 100 scale
[4] = tested on: wheat (Triticum aestivum); test: Test A postemergence, visual injury rating 0-100; type: in vivo; conditions: 0 to 100 scale
[5] = tested on: blackgrass (Alopecurus myosuroides); test: Test A postemergence, visual injury rating 0-100; type: in vivo; conditions: 0 to 100 scale
kochia (Kochia scoparia) [6] = test: Test A postemergence, visual injury rating 0-100; type: in vivo; conditions: 0 to 100 scale
[7] = tested on: ryegrass, Italian (Italian ryegrass, Lolium multiflorum); test: Test A postemergence, visual injury rating 0-100; type: in vivo; conditions: 0 to 100 scale
[8] = tested on: ragweed (common ragweed, Ambrosia elatior); test: Test A postemergence, visual injury rating 0-100; type: in vivo; conditions: 0 to 100 scale
corn (Zea mays) = test: Test A postemergence, visual injury rating 0-100; type: in vivo; conditions: 0 to 100 scale
[9] = tested on: barnyardgrass (Echinochloa crus-galli); test: Test A postemergence, visual injury rating 0-100; type: in vivo; conditions: 0 to 100 scale
[10] = tested on: barnyardgrass (Echinochloa crus-galli); test: Test A preemergence, visual injury rating 0-100 (0 no effect, 100 complete control); type: in vivo; conditions: for Barnyardgrass plant response rating: 0 to 100 scale
[11] = tested on: ducksalad (Heteranthera limosa); test: Test B flooded paddy test, visual rating 0-100; conditions: Flood, 250 g ai/ha, applied to paddy water, rated after 13 to 15 days
[12] = tested on: foxtail, green (green foxtail, Setaria viridis); test: Test A preemergence, visual injury rating 0-100; type: in vivo; conditions: for Foxtail, Green plant response rating (0 to 100 scale): 125 g ai/ha; for Foxtail, Green plant response rating: 500 g ai/ha, 0 to 100 scale
[13] = tested on: pigweed (Amaranthus retroflexus); test: Test A preemergence, visual injury rating 0-100; type: in vivo; conditions: for Pigweed plant response rating: 0 to 100 scale
kochia (Kochia scoparia) [14] = test: Test A preemergence, visual injury rating 0-100; type: in vivo; conditions: for Kochia plant response rating: 0 to 100 scale
[15] = tested on: ryegrass, Italian (Italian ryegrass, Lolium multiflorum); test: Test A preemergence, visual injury rating 0-100; type: in vivo; conditions: for Ryegrass, Italian plant response rating: 0 to 100 scale
[16] = tested on: ragweed (common ragweed, Ambrosia elatior); test: Test A preemergence, visual injury rating 0-100; type: in vivo; conditions: for Ragweed plant response rating: 0 to 100 scale
[17] = tested on: galium (catchweed bedstraw, Galium aparine); test: Test A postemergence, visual injury rating 0-100; type: in vivo; conditions: 0 to 100 scale
[18] = tested on: foxtail, giant (giant foxtail, Setaria faberii); test: Test A postemergence, visual injury rating 0-100; type: in vivo; conditions: 0 to 100 scale
[19] = tested on: foxtail, giant (giant foxtail, Setaria faberii); test: Test A preemergence, visual injury rating 0-100; type: in vivo

Row | Structure (SMILES) | Barnyardgrass plant response rating (0 to 100 scale) [1] | Rice plant response rating (0 to 100 scale) (rice (Oryza sativa)) | Pigweed plant response rating ([3]; 125 g ai/ha) | Pigweed plant response rating ([3]; 500 g ai/ha) | Wheat plant response rating ([4]; 125 g ai/ha) | Wheat plant response rating ([4]; 500 g ai/ha) | Blackgrass plant response rating ([5]; 125 g ai/ha) | Blackgrass plant response rating ([5]; 500 g ai/ha) | Kochia plant response rating (kochia (Kochia scoparia) [6]; 125 g ai/ha) | Kochia plant response rating (kochia (Kochia scoparia) [6]; 500 g ai/ha) | Ryegrass, Italian plant response rating ([7]; 125 g ai/ha) | Ryegrass, Italian plant response rating ([7]; 500 g ai/ha) | Ragweed plant response rating ([8]; 125 g ai/ha) | Ragweed plant response rating ([8]; 500 g ai/ha) | Corn plant response rating (corn (Zea mays); 125 g ai/ha) | Corn plant response rating (corn (Zea mays); 500 g ai/ha) | Barnyardgrass plant response rating ([9]; 125 g ai/ha) | Barnyardgrass plant response rating ([9]; 500 g ai/ha) | Barnyardgrass plant response rating (0 to 100 scale) ([10]; 125 g ai/ha) | Ducksalad plant response rating (0 to 100 scale) [11] | further results
1 | CC1=[N+]([O-])C(C(=O)Nc2cccc(F)c2F)C(c2ccc(C#N)cc2)C1 (racemic) [Compound 22] | 0 | 30 | 0 | 20 | 0 | 0 | 0 | 30 | 0 | 30 | 0 | 0 | 0 | 0 | 0 | 0 | 0 | 60 | 20 | 40 | Foxtail, Green plant response rating ([2]; 125 g ai/ha): 0; Foxtail, Green plant response rating ([2]; 500 g ai/ha): 50; Barnyardgrass plant response rating ([10]; 500 g ai/ha): 80; Foxtail, Green plant response rating (0 to 100 scale) [12]: 40; Foxtail, Green plant response rating [12]: 70; Pigweed plant response rating (0 to 100 scale) ([13]; 125 g ai/ha): 0; Pigweed plant response rating ([13]; 500 g ai/ha): 20; Kochia plant response rating (0 to 100 scale) (kochia (Kochia scoparia) [14]; 125 g ai/ha): 0; Kochia plant response rating (kochia (Kochia scoparia) [14]; 500 g ai/ha): 20; Ryegrass, Italian plant response rating (0 to 100 scale) ([15]; 125 g ai/ha): 0; Ryegrass, Italian plant response rating ([15]; 500 g ai/ha): 0; Ragweed plant response rating (0 to 100 scale) ([16]; 125 g ai/ha): 70; Ragweed plant response rating ([16]; 500 g ai/ha): 30
2 | CC1=[N+]([O-])C(C(=O)Nc2cccc(F)c2F)C(c2cccc(C#N)c2)C1 (racemic) [Compound 23] | 50 | 0 | 0 | 0 | 20 | 50 | 0 | 0 | 0 | 20 | 0 | 20 | 0 | 0 | 0 | 0 | 70 | 80 | 60 | 60 | Foxtail, Green plant response rating ([2]; 125 g ai/ha): 30; Foxtail, Green plant response rating ([2]; 500 g ai/ha): 80; Barnyardgrass plant response rating ([10]; 500 g ai/ha): 90; Foxtail, Green plant response rating (0 to 100 scale) [12]: 80; Foxtail, Green plant response rating [12]: 90; Pigweed plant response rating (0 to 100 scale) ([13]; 125 g ai/ha): 0; Pigweed plant response rating ([13]; 500 g ai/ha): 0; Kochia plant response rating (0 to 100 scale) (kochia (Kochia scoparia) [14]; 125 g ai/ha): 20; Kochia plant response rating (kochia (Kochia scoparia) [14]; 500 g ai/ha): 50; Ryegrass, Italian plant response rating (0 to 100 scale) ([15]; 125 g ai/ha): 0; Ryegrass, Italian plant response rating ([15]; 500 g ai/ha): 0; Ragweed plant response rating (0 to 100 scale) ([16]; 125 g ai/ha): 50; Ragweed plant response rating ([16]; 500 g ai/ha): 80
3 | COc1cc(C2CC(C)=[N+]([O-])C2C(=O)Nc2cccc(F)c2F)ccc1C(F)(F)F (stereo not shown) [Compound 100] | 0 | 0 | 0 | 40 | 20 | 50 | 30 | 70 | 20 | 70 | 0 | 70 | 20 | 70 | 30 | 70 | 70 | 90 | 90 | 0 | Galium plant response rating ([17]; 125 g ai/ha): 70; Galium plant response rating ([17]; 500 g ai/ha): 80; Foxtail, Giant plant response rating ([18]; 125 g ai/ha): 60; Foxtail, Giant plant response rating ([18]; 500 g ai/ha): 90; Barnyardgrass plant response rating (0 to 100 scale) ([10]; 500 g ai/ha): 90; Pigweed plant response rating (0 to 100 scale) ([13]; 125 g ai/ha): 0; Pigweed plant response rating (0 to 100 scale) ([13]; 500 g ai/ha): 60; Kochia plant response rating (0 to 100 scale) (kochia (Kochia scoparia) [14]; 125 g ai/ha): 40; Kochia plant response rating (0 to 100 scale) (kochia (Kochia scoparia) [14]; 500 g ai/ha): 80; Ryegrass, Italian plant response rating (0 to 100 scale) ([15]; 125 g ai/ha): 0; Ryegrass, Italian plant response rating (0 to 100 scale) ([15]; 500 g ai/ha): 90; Ragweed plant response rating (0 to 100 scale) ([16]; 125 g ai/ha): 0; Ragweed plant response rating (0 to 100 scale) ([16]; 500 g ai/ha): 80; Foxtail, Giant plant response rating (0 to 100 scale) ([19]; 125 g ai/ha): 90; Foxtail, Giant plant response rating (0 to 100 scale) ([19]; 500 g ai/ha): 90
4 | CC1=[N+]([O-])C(C(=O)Nc2cccc(F)c2F)C(c2ccc(C(F)(F)F)cc2F)C1 (stereo not shown) [Compound 101] | 50 | 0 | 0 | 60 | 10 | 60 | 70 | 80 | 30 | 60 | 50 | 50 | 30 | 60 | 20 | 70 | 50 | 90 | 90 | 90 | Galium plant response rating ([17]; 125 g ai/ha): 70; Galium plant response rating ([17]; 500 g ai/ha): 80; Foxtail, Giant plant response rating ([18]; 125 g ai/ha): 80; Foxtail, Giant plant response rating ([18]; 500 g ai/ha): 90; Barnyardgrass plant response rating (0 to 100 scale) ([10]; 500 g ai/ha): 90; Pigweed plant response rating (0 to 100 scale) ([13]; 125 g ai/ha): 70; Pigweed plant response rating (0 to 100 scale) ([13]; 500 g ai/ha): 90; Kochia plant response rating (0 to 100 scale) (kochia (Kochia scoparia) [14]; 125 g ai/ha): 30; Kochia plant response rating (0 to 100 scale) (kochia (Kochia scoparia) [14]; 500 g ai/ha): 90; Ryegrass, Italian plant response rating (0 to 100 scale) ([15]; 125 g ai/ha): 40; Ryegrass, Italian plant response rating (0 to 100 scale) ([15]; 500 g ai/ha): 90; Ragweed plant response rating (0 to 100 scale) ([16]; 125 g ai/ha): 10; Ragweed plant response rating (0 to 100 scale) ([16]; 500 g ai/ha): 90; Foxtail, Giant plant response rating (0 to 100 scale) ([19]; 125 g ai/ha): 90; Foxtail, Giant plant response rating (0 to 100 scale) ([19]; 500 g ai/ha): 90
